Legend:
Type in all cases: functional, cell-based
HT-29 = experiment: Cytotoxicity against human HT29 cells
A549 = experiment: Cytotoxicity against human A549 cells
P388 = experiment: Cytotoxicity against mouse P388 cells

Measured: IC50

CCCCCCC[C@@H](C/C=C/CCC(=O)N(C)C/C(=C\Cl)C/C(=C\C(=O)OC)OC)OC [MALYNGAMIDE O]
2 µg/mL: all assays above
